Assay results taken from ChEMBL document CHEMBL1201862, “PubChem BioAssay data set” (2004).
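Growth conditions: 96-well plates. Treatment: test compound, 48 hours, 5 concentrations. Analysis: linear interpolation between bracketing concentrations; unreached endpoints set to highest concentration. GI50 = concentration required for 50% inhibition of growth.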 Calls of active or inactive are those of the source. Rule as the data show it: active = GI50 up to about 1.1 µM and inactive = higher.

What was measured:
Test in all cases: NCI tumour cell line growth inhibition, 48 h
OVCAR-4 = tested on: OVCAR-4
HOP-62 = tested on: HOP-62
SK-MEL-28 = tested on: SK-MEL-28
OVCAR-5 = tested on: OVCAR-5
OVCAR-3 = tested on: OVCAR-3
HCT-116 = tested on: HCT-116
NCI-H460 = tested on: NCI-H460
T47D = tested on: T47D
EKVX = tested on: EKVX
U-251 = tested on: U-251
A549 = tested on: A549
HCC 2998 = tested on: HCC 2998
HT-29 = tested on: HT-29
HCT-15 = tested on: HCT-15
LOX IMVI = tested on: LOX IMVI
SF-539 = tested on: SF-539
NCI-H226 = tested on: NCI-H226
SR = tested on: SR
UACC-62 = tested on: UACC-62
DU-145 = tested on: DU-145
TK-10 = tested on: TK-10
RPMI-8226 = tested on: RPMI-8226
KM12 = tested on: KM12
MDA-MB-435 = tested on: MDA-MB-435
RXF 393 = tested on: RXF 393
SK-MEL-5 = tested on: SK-MEL-5
M14 = tested on: M14
SN12C = tested on: SN12C
786-0 = tested on: 786-0
IGROV-1 = tested on: IGROV-1
MCF7 = tested on: MCF7
COLO 205 = tested on: COLO 205
HOP-92 = tested on: HOP-92
SW-620 = tested on: SW-620
UO-31 = tested on: UO-31
MDA-MB-231 = tested on: MDA-MB-231
PC-3 = tested on: PC-3
Malme-3M = tested on: Malme-3M
A498 = tested on: A498
UACC-257 = tested on: UACC-257
SF-268 = tested on: SF-268
NCI-H522 = tested on: NCI-H522
MDA-N = tested on: MDA-N
Hs-578T = tested on: Hs-578T
NCI/ADR-RES = tested on: NCI/ADR-RES
MOLT-4 = tested on: MOLT-4
BT-549 = tested on: BT-549
CAKI-1 = tested on: CAKI-1
SF-295 = tested on: SF-295
CCRF-CEM = tested on: CCRF-CEM
SNB-19 = tested on: SNB-19
HL-60 = tested on: HL-60
ACHN = tested on: ACHN
NCI-H23 = tested on: NCI-H23
SK-OV-3 = tested on: SK-OV-3
K562 = tested on: K562
SK-MEL-2 = tested on: SK-MEL-2
OVCAR-8 = tested on: OVCAR-8
SNB-75 = tested on: SNB-75

`Cc1ccc(/C=C2\CN(C)CC3=C2OC(N)=C(C#N)C3c2ccc(C)cc2)cc1` (stereo not drawn) was tested, and the GI50 (OVCAR-4) was 12.2 µM (inactive), the GI50 (HOP-62) was 22.7 µM (inactive) and the GI50 (SK-MEL-28) was 27.8 µM (inactive). The GI50 (OVCAR-5) was 22.8 µM (inactive), the GI50 (OVCAR-3) was 12.1 µM (inactive) and the GI50 (HCT-116) was 12.6 µM (inactive). The GI50 (NCI-H460) was 17.9 µM (inactive), the GI50 (T47D) was 7.11 µM (inactive) and the GI50 (EKVX) was 17.1 µM (inactive). The GI50 (U-251) was 34.7 µM (inactive), the GI50 (A549) was 14.4 µM (inactive) and the GI50 (HCC 2998) was 15.2 µM (inactive). The GI50 (HT-29) was 16.1 µM (inactive), the GI50 (HCT-15) was 14.1 µM and the GI50 (LOX IMVI) was 13.5 µM (inactive). For the same molecule, the GI50 (SF-539) was 41.7 µM (inactive), the GI50 (NCI-H226) was 22.2 µM (inactive) and the GI50 (SR) was 19.9 µM (inactive). For the same molecule, the GI50 (UACC-62) was 18.4 µM (inactive), the GI50 (DU-145) was 17.9 µM (inactive) and the GI50 (TK-10) was 31.5 µM (inactive). The GI50 (RPMI-8226) was 9.98 µM (inactive), the GI50 (KM12) was 15.5 µM (inactive) and the GI50 (MDA-MB-435) was 15.8 µM (inactive). The GI50 (RXF 393) was 11.3 µM (inactive), the GI50 (SK-MEL-5) was 25.9 µM (inactive) and the GI50 (M14) was 20.6 µM (inactive). The GI50 (SN12C) was 17.3 µM (inactive), the GI50 (786-0) was 15.6 µM (inactive) and the GI50 (IGROV-1) was 7.5 µM (inactive). For the same molecule, the GI50 (MCF7) was 18 µM (inactive), the GI50 (COLO 205) was 17 µM (inactive) and the GI50 (HOP-92) was 1.05 µM (active). For the same molecule, the GI50 (SW-620) was 32 µM (inactive), the GI50 (UO-31) was 17.6 µM (inactive) and the GI50 (MDA-MB-231) was > 38.5 µM (inactive). For the same molecule, the GI50 (PC-3) was 15.7 µM (inactive), the GI50 (Malme-3M) was 20.3 µM (inactive) and the GI50 (A498) was 16 µM (inactive). For the same molecule, the GI50 (UACC-257) was 18.8 µM (inactive), the GI50 (SF-268) was 30.1 µM (inactive) and the GI50 (NCI-H522) was 12.2 µM (inactive). For the same molecule, the GI50 (MDA-N) was 17.2 µM (inactive), the GI50 (Hs-578T) was 46.3 µM (inactive) and the GI50 (NCI/ADR-RES) was 20.7 µM (inactive). For the same molecule, the GI50 (MOLT-4) was 7.76 µM (inactive), the GI50 (BT-549) was 16.7 µM (inactive) and the GI50 (CAKI-1) was 19.5 µM (inactive). The GI50 (SF-295) was 16.8 µM (inactive), the GI50 (CCRF-CEM) was 4.2 µM (inactive) and the GI50 (SNB-19) was 26.4 µM (inactive). For the same molecule, the GI50 (HL-60) was < 0.01 µM (active), the GI50 (ACHN) was 18.8 µM (inactive) and the GI50 (NCI-H23) was 16 µM (inactive). For the same molecule, the GI50 (SK-OV-3) was 9.84 µM (inactive), the GI50 (K562) was 11.2 µM (inactive) and the GI50 (SK-MEL-2) was 39.9 µM (inactive). The GI50 (OVCAR-8) was 13.4 µM (inactive).

For `O=[N+]([O-])c1cccc(Cl)c1Oc1ccc(S(=O)(=O)N/C(=N\O)Nc2ccc(Cl)cc2)cc1`, the GI50 (OVCAR-4) was 7.1 µM (inactive), the GI50 (HOP-62) was 20.2 µM (inactive) and the GI50 (SK-MEL-28) was 15.1 µM (inactive). For the same molecule, the GI50 (OVCAR-5) was 17 µM (inactive), the GI50 (OVCAR-3) was 10.3 µM (inactive) and the GI50 (HCT-116) was 12.5 µM (inactive). The GI50 (NCI-H460) was 12.8 µM (inactive), the GI50 (T47D) was 5.97 µM (inactive) and the GI50 (EKVX) was 12.2 µM (inactive). The GI50 (U-251) was 13.6 µM (inactive), the GI50 (A549) was 13.9 µM (inactive) and the GI50 (HCC 2998) was 10.8 µM (inactive). The GI50 (HT-29) was 17.1 µM (inactive), the GI50 (HCT-15) was 15 µM and the GI50 (LOX IMVI) was 14.3 µM (inactive). The GI50 (SF-539) was 14.6 µM (inactive), the GI50 (NCI-H226) was 21.2 µM (inactive) and the GI50 (SR) was 6.14 µM (inactive). The GI50 (UACC-62) was 12.7 µM (inactive), the GI50 (DU-145) was 15.5 µM (inactive) and the GI50 (TK-10) was 14.8 µM (inactive). For the same molecule, the GI50 (RPMI-8226) was 6.01 µM (inactive), the GI50 (KM12) was 15.9 µM (inactive) and the GI50 (MDA-MB-435) was 14.3 µM (inactive). The GI50 (RXF 393) was 13.8 µM (inactive), the GI50 (SK-MEL-5) was 11.9 µM (inactive) and the GI50 (M14) was 14.2 µM (inactive). For the same molecule, the GI50 (SN12C) was 12.3 µM (inactive), the GI50 (786-0) was 12.9 µM (inactive) and the GI50 (IGROV-1) was 15.1 µM (inactive). For the same molecule, the GI50 (MCF7) was 13.3 µM (inactive), the GI50 (COLO 205) was 17.1 µM (inactive) and the GI50 (HOP-92) was 4.76 µM (inactive). The GI50 (SW-620) was 15.1 µM (inactive), the GI50 (UO-31) was 9.1 µM (inactive) and the GI50 (MDA-MB-231) was 17.7 µM (inactive). The GI50 (PC-3) was 11.5 µM (inactive), the GI50 (Malme-3M) was 13.1 µM (inactive) and the GI50 (A498) was 14.2 µM (inactive). The GI50 (UACC-257) was 11.1 µM (inactive), the GI50 (SF-268) was 9.1 µM (inactive) and the GI50 (NCI-H522) was 4.74 µM (inactive). For the same molecule, the GI50 (MDA-N) was 12.7 µM (inactive), the GI50 (Hs-578T) was 5.79 µM (inactive) and the GI50 (NCI/ADR-RES) was 20.3 µM (inactive). The GI50 (MOLT-4) was 3.11 µM (inactive), the GI50 (BT-549) was 14.5 µM (inactive) and the GI50 (CAKI-1) was 9.46 µM (inactive). For the same molecule, the GI50 (SF-295) was 16.1 µM (inactive), the GI50 (CCRF-CEM) was 2.55 µM (inactive) and the GI50 (SNB-19) was 16.2 µM (inactive). For the same molecule, the GI50 (ACHN) was 14.1 µM (inactive), the GI50 (NCI-H23) was 15.5 µM (inactive) and the GI50 (SK-OV-3) was 17.1 µM (inactive). For the same molecule, the GI50 (K562) was 14.3 µM (inactive), the GI50 (SK-MEL-2) was 13 µM (inactive) and the GI50 (OVCAR-8) was 16.3 µM (inactive).

For `Cc1cc(C)c2c(n1)S(=O)(=O)N(CCCN1CCN(c3cccc(C(F)(F)F)c3)CC1)c1c-2nn(C)c1C`, the GI50 (OVCAR-4) was 75.3 µM (inactive), the GI50 (HOP-62) was > 100 µM (inactive) and the GI50 (SK-MEL-28) was 60 µM (inactive). For the same molecule, the GI50 (OVCAR-5) was > 100 µM (inactive), the GI50 (OVCAR-3) was 67.1 µM (inactive) and the GI50 (HCT-116) was 61.8 µM (inactive). For the same molecule, the GI50 (NCI-H460) was 89.3 µM (inactive), the GI50 (T47D) was > 100 µM (inactive) and the GI50 (EKVX) was > 100 µM (inactive). For the same molecule, the GI50 (U-251) was > 100 µM (inactive), the GI50 (A549) was 65.6 µM (inactive) and the GI50 (SNB-75) was > 100 µM (inactive). For the same molecule, the GI50 (HCC 2998) was > 100 µM (inactive), the GI50 (HT-29) was 16.6 µM (inactive) and the GI50 (HCT-15) was 44.5 µM. For the same molecule, the GI50 (LOX IMVI) was 52.6 µM (inactive), the GI50 (SF-539) was > 100 µM (inactive) and the GI50 (NCI-H226) was 30.7 µM (inactive). The GI50 (SR) was 19.4 µM (inactive), the GI50 (UACC-62) was 58.7 µM (inactive) and the GI50 (DU-145) was > 100 µM (inactive). For the same molecule, the GI50 (TK-10) was > 100 µM (inactive), the GI50 (KM12) was 52.8 µM (inactive) and the GI50 (MDA-MB-435) was 40.5 µM (inactive). The GI50 (RXF 393) was > 100 µM (inactive), the GI50 (SK-MEL-5) was 23.1 µM (inactive) and the GI50 (M14) was 43.9 µM (inactive). The GI50 (SN12C) was 97.5 µM (inactive), the GI50 (786-0) was > 100 µM (inactive) and the GI50 (IGROV-1) was 55.2 µM (inactive). For the same molecule, the GI50 (MCF7) was 38.5 µM (inactive), the GI50 (COLO 205) was 26.1 µM (inactive) and the GI50 (HOP-92) was 45.3 µM (inactive). For the same molecule, the GI50 (SW-620) was > 100 µM (inactive), the GI50 (UO-31) was 44.4 µM (inactive) and the GI50 (MDA-MB-231) was > 100 µM (inactive). For the same molecule, the GI50 (PC-3) was 25.9 µM (inactive), the GI50 (Malme-3M) was > 100 µM (inactive) and the GI50 (A498) was > 100 µM (inactive). The GI50 (UACC-257) was 32.5 µM (inactive), the GI50 (SF-268) was > 100 µM (inactive) and the GI50 (NCI-H522) was 57.4 µM (inactive). For the same molecule, the GI50 (MDA-N) was 39.9 µM (inactive), the GI50 (Hs-578T) was > 100 µM (inactive) and the GI50 (NCI/ADR-RES) was 53.3 µM (inactive). The GI50 (MOLT-4) was 10.8 µM (inactive), the GI50 (BT-549) was > 100 µM (inactive) and the GI50 (CAKI-1) was 43.1 µM (inactive). The GI50 (SF-295) was 52.7 µM (inactive), the GI50 (CCRF-CEM) was 66.7 µM (inactive) and the GI50 (SNB-19) was > 100 µM (inactive). The GI50 (HL-60) was 24 µM (inactive), the GI50 (ACHN) was > 100 µM (inactive) and the GI50 (NCI-H23) was 61.2 µM (inactive). The GI50 (SK-OV-3) was > 100 µM (inactive), the GI50 (K562) was 30.3 µM (inactive) and the GI50 (SK-MEL-2) was > 100 µM (inactive). For the same molecule, the GI50 (OVCAR-8) was > 100 µM (inactive).
